In patent publication US7146278B2, “Method of selecting marker molecules for prediction of molecular activity” (Accelrys Software Inc., priority 2001, dated 2006):
Where two headings read alike, the source gives them in different places.

Assays:
[1] = system: serum proteins; details: cited from earlier work; for % PB: marker molecules, training set from Goodman & Gilman 9th ed.
[2] = nephrotic syndrome, serum albumin concentrations halved; cited from earlier work
[3] = system: serum proteins; test: Percent protein bound in serum (literature % PB data); details: binary class: highly protein bound (DTC) or not
From the text: Drugs may bind to a variety of components in the blood, including albumin, a1-acid glyciprotein (AAG), lipoproteins, immunoglobulins, sex hormone binding globulins, and erythrocytes. […] Some foreknowledge of the protein binding characteristics of a molecule would help provide a better estimate of the pharmacodynamics and pharmacokinetics of the molecule. […] In addition, hepatic extraction is directly proportional to fu. […] The maximum oral bioavailability is directly related to the hepatic extraction ratio, which is in part dependent upon the fu. Disease states causing significant drop in serum albumin, e.g. nephrotic syndrome, where serum albumin concentrations are halved, cause a corresponding 2-fold decrease in half-life for clofibrate.
Using the principles of predictive model development described herein, a model for classifying compounds as highly protein bound (>90% bound) or not highly protein bound (<90% bound) was created. The model development methods are thus described below using a protein binding model as one example application. The model development methods of the invention may also be applied to the creation of other prediction models, such as models to predict CYP450 metabolism, inhibition, and activation, as well as p-Glycoprotein efflux.
The method next advances to the process block 14 where a reference (“training”) set of molecules is classified according to the property of interest. The larger the training set of molecules is (>50 preferably), the better the method should perform. Preferably each of the molecules in the training set has a known binary classification for the property of interest. […] For illustration, an example training set of ten molecules for a protein binding prediction model may be as follows:
The method next advances to a process block 16, where a subset of the training set of molecules is chosen such that the subset includes the molecules in the training set that have the desired property of interest. In one embodiment, molecules in this subset are referred to as Desired Target Class (“DTC”) molecules.
The above simplified example includes 10 training dataset molecules. […] The following compounds were excluded because they lacked % PB values or belonged to an unusual structural class: atracurium, auranofin, azathioprine, bleomycin, bretylium, busulfan, capreomycin, carboplatin, carmustine, cisplatin, clemastine, dobutamine, enoxacin, ethanol, foscarnet, gold sodium thiomalate, isosorbide-5-mononitrate, isosorbide dinitrate, levodopa, levonorgestrel, methohexital, methylprednisolone, nalbuphine, naloxone, neostigmine, nitroglycerin, pancuronium, pipecuronium, prednisolone, prednisone, pyridostigmine, scopolamine, tubocurarine, vecuronium.
A test dataset was also assembled to verify model performance.

[4] = target: Human serum albumin (HSA) (Homo sapiens, UniProt P02768); details: site I warfarin site, site II benzodiazepines/NSAIDS site; cited from earlier work
[5] = example training set of ten molecules
[6] = training set (Goodman & Gilman) or PDR test set

Human serum albumin (HSA), sequence (P02768 25-609): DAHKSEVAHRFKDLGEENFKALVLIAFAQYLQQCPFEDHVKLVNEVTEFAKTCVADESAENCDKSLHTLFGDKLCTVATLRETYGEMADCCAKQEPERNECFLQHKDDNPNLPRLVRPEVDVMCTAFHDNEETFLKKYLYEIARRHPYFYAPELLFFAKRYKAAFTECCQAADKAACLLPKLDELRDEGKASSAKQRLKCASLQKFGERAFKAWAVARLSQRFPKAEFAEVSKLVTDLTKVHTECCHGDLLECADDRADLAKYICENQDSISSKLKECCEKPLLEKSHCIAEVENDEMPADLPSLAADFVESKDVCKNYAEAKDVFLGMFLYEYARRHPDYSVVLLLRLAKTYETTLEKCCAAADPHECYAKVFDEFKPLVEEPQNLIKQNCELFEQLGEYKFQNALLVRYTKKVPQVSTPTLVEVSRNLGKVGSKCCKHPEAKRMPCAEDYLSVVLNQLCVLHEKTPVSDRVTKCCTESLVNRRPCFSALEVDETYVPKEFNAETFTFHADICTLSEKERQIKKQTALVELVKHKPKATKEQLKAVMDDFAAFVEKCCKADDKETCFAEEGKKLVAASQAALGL

| SMILES | % PB [1] | further results |
| --- | --- | --- |
| CC1=C(CC(=O)O)c2cc(F)ccc2/C1=C\c1ccc([S+](C)[O-])cc1 (stereo not shown) | 94% | – |
| CCOC(=O)C1=C(COCCN)NC(C)=C(C(=O)OC)C1c1ccccc1Cl (stereo not shown) [AMLODIPINE] | 93% | – |
| CCOC(=O)[C@H](CCc1ccccc1)N[C@H]1CCc2ccccc2N(CC(=O)O)C1=O [BENAZEPRIL] | 97% | – |
| CCCCNc1cc(C(=O)O)cc(S(N)(=O)=O)c1Oc1ccccc1 [BUMETANIDE] | 99% | – |
| CCOC(=O)C(C)(C)Oc1ccc(Cl)cc1 [CLOFIBRATE] | 96.5% | decrease in half-life [2]: 2 fold |
| Clc1cccc(Cl)c1N=C1NCCN1 [CLONIDINE] | – | Classification [3]: 0 (not highly protein bound (<90% bound)); % Protein Bound [1, 5]: 30.0% |
| O=C(O)C1N=C(c2ccccc2)c2cc(Cl)ccc2NC1=O (stereo not shown) [CLORAZEPATE] | 96.9% | – |
| CN1C(=O)CN=C(c2ccccc2)c2cc(Cl)ccc21 [DIAZEPAM] | – | Classification [3]: 1 (highly protein bound (>90% bound)) |
| O=C(O)c1cc(-c2ccc(F)cc2F)ccc1O [DIFLUNISAL] | 99.9% | – |
| CCc1cccc2c3c([nH]c12)C(CC)(CC(=O)O)OCC3 (stereo not shown) [ETODOLAC] | 99.1% | – |
| CCOC(=O)C1=C(C)NC(C)=C(C(=O)OC)C1c1cccc(Cl)c1Cl (stereo not shown) [FELODIPINE] | 99.6% | – |
| CCN(CC)CCN1C(=O)CN=C(c2ccccc2F)c2cc(Cl)ccc21 [FLURAZEPAM] | 96.6% | – |
| CC(C(=O)O)c1ccc(-c2ccccc2)c(F)c1 (stereo not shown) [FLURBIPROFEN] | 99.5% | Classification [3]: 1 (highly protein bound (>90% bound)); % Protein Bound [1, 5]: 99.5% |
| NS(=O)(=O)c1cc(C(=O)O)c(NCc2ccco2)cc1Cl [FUROSEMIDE] | 98.8% | – |
| Cc1cnc(C(=O)NCCc2ccc(S(=O)(=O)NC(=O)NC3CCCCC3)cc2)cn1 [GLIPIZIDE] | 98.4% | – |
| COc1ccc(Cl)cc1C(=O)NCCc1ccc(S(=O)(=O)NC(=O)NC2CCCCC2)cc1 [GLYBURIDE] | 99.8% | – |
| NS(=O)(=O)c1cc2c(cc1Cl)NCNS2(=O)=O [HYDROCHLOROTHIAZIDE] | – | Classification [3]: 0 (not highly protein bound (<90% bound)); % Protein Bound [1, 5]: 58.0% |
| CN(C)CCCN1c2ccccc2CCc2ccccc21 [IMIPRAMINE] | 90.1% | – |
| COC(=O)C1=C(C)NC(C)=C(C(=O)OC(C)C)C1c1cccc2nonc12 (stereo not shown) [ISRADIPINE] | 97% | – |
| CCC(C)n1ncn(-c2ccc(N3CCN(c4ccc(OCC5COC(Cn6cncn6)(c6ccc(Cl)cc6Cl)O5)cc4)CC3)cc2)c1=O (stereo not shown) [ITRACONAZOLE] | 99.8% | – |
| CC(=O)N1CCN(c2ccc(OCC3COC(Cn4ccnc4)(c4ccc(Cl)cc4Cl)O3)cc2)CC1 (stereo not shown) [KETOCONAZOLE] | 99% | – |
| O=C(c1ccccc1)c1ccc2n1CCC2C(=O)O (stereo not shown) [KETOROLAC] | 99.2% | – |
| NCCCC[C@H](N[C@@H](CCc1ccccc1)C(=O)O)C(=O)N1CCC[C@H]1C(=O)O [LISINOPRIL] | – | Classification [3]: 0 (not highly protein bound (<90% bound)) |
| O=C1Nc2ccc(Cl)cc2C(c2ccccc2Cl)=NC1O (stereo not shown) [LORAZEPAM] | 91% | – |

| SMILES | % PB [1] | further results |
| --- | --- | --- |
| CN(C)c1ccc(O)c2c1C[C@H]1C[C@H]3[C@H](N(C)C)C(O)=C(C(N)=O)C(=O)[C@@]3(O)C(O)=C1C2=O [MINOCYCLINE] | – | Classification [3]: 0 (not highly protein bound (<90% bound)); % Protein Bound [1, 5]: 76.0% |
| COc1ccc2cc(CCC(C)=O)ccc2c1 [NABUMETONE] | 99% | – |
| COc1ccc2cc([C@H](C)C(=O)O)ccc2c1 [NAPROXEN] | – | Classification [3]: 1 (highly protein bound (>90% bound)) |
| COC(=O)C1=C(C)NC(C)=C(C(=O)OCCN(C)Cc2ccccc2)C1c1cccc([N+](=O)[O-])c1 (stereo not shown) [NICARDIPINE] | 99% | – |
| COCCOC(=O)C1=C(C)NC(C)=C(C(=O)OC(C)C)C1c1cccc([N+](=O)[O-])c1 (stereo not shown) [NIMODIPINE] | 98% | – |
| CCOC(=O)C1=C(C)NC(C)=C(C(=O)OC)C1c1cccc([N+](=O)[O-])c1 (stereo not shown) [NITRENDIPINE] | 98% | – |
| O=C1CN=C(c2ccccc2)c2cc(Cl)ccc2N1 [NORDAZEPAM] | 97.5% | – |
| O=C1Nc2ccc(Cl)cc2C(c2ccccc2)=NC1O (stereo not shown) [OXAZEPAM] | 98.8% | – |
| Fc1ccc([C@@H]2CCNC[C@H]2COc2ccc3c(c2)OCO3)cc1 [PAROXETINE] | 95% | % Protein Bound [1, 6]: 95% |
| O=c1[nH]c2ccccc2n1C1CCN(CCCC(c2ccc(F)cc2)c2ccc(F)cc2)CC1 [PIMOZIDE] | 99% | – |
| CN1C(C(=O)Nc2ccccn2)=C(O)c2ccccc2S1(=O)=O [PIROXICAM] | 98.5% | – |
| O=C1CN=C(c2ccccc2)c2cc(Cl)ccc2N1CC1CC1 [PRAZEPAM] | 95.5% | – |
| CNCCCC1c2ccccc2C=Cc2ccccc21 [PROTRIPTYLINE] | 92% | – |
| CCc1nc(N)nc(N)c1-c1ccc(Cl)cc1 [PYRIMETHAMINE] | – | Classification [3]: 0 (not highly protein bound (<90% bound)); % Protein Bound [1, 5]: 87.0%; % Protein Bound [1, 6]: 87% |
| CC(N)C12CC3CC(CC(C3)C1)C2 (stereo not shown) [RIMANTADINE] | – | Classification [3]: 0 (not highly protein bound (<90% bound)); % Protein Bound [1, 5]: 40.0% |
| CC(C(=O)O)c1ccc(C(=O)c2cccs2)cc1 (stereo not shown) [Suprofen] | – | HSA binding site [4]: binds to HSA site II |
| CN1C(=O)C(O)N=C(c2ccccc2)c2cc(Cl)ccc21 (stereo not shown) [TEMAZEPAM] | 97.6% | – |
| Cc1ccc(C(=O)c2ccc(CC(=O)O)n2C)cc1 [TOLMETIN] | 99.6% | – |
| O=c1n(CCCN2CCN(c3cccc(Cl)c3)CC2)nc2ccccn12 [TRAZODONE] | 93% | – |
| CCCC(CCC)C(=O)O [Valproic acid] | – | HSA binding site [4]: bind to both HSA Sites I and II |
| CC(=O)CC(c1ccccc1)c1c(O)c2ccccc2oc1=O (stereo not shown) [WARFARIN] | – | Classification [3]: 1 (highly protein bound (>90% bound)) |
| Cc1ccc(-c2nc3ccc(C)cn3c2CC(=O)N(C)C)cc1 [ZOLPIDEM] | 92% | – |
| COC(=O)[C@H](c1ccccc1Cl)N1CCc2sccc2C1 [clopidogrel] | – | % Protein Bound [1, 6]: 98% |
| COC(=O)C(C)c1ccc(C(=O)c2cccs2)cc1 (stereo not shown) [suprofen methyl ester] | – | HSA binding site [4]: binds to HSA site I |
